The record followed here is ChEMBL document CHEMBL3797156, “(7-Diethylaminocoumarin-4-yl)methyl ester of suberoylanilide hydroxamic acid as a caged inhibitor for photocontrol of histone deacetylase activity” (Bioorg Med Chem, 2016).

A short description of series [1]: Prodrug conversion in tris buffer assessed as suberoyl anilide hydroxamic acid formation at 200 uM followed 400 to 430 nm irradiation for 10 mins by HPLC analysis. The class given is ADME.
Another series has as its system HCT-116. The series is described as follows: Cytotoxicity against human HCT116 cells assessed as inhibition of cell growth at 10 and 30 uM preincubated for 3 hrs followed irradiation at 400 - 430 nm for 1, 3 and 10 min measured after 48 hrs by CellTiter-Glo assay. The class given is functional, cell-based. A general note: In ATP-based viability assays light output follows the ATP content of the culture.

Series [2] addresses T1, Histone deacetylase (Homo sapiens) (UniProt Q13547+O15379+Q9UBN7+Q92769+Q9UQL6+Q8WUI4+Q9BY41+Q96DB2+P56524+Q9UKV0+Q969S8). Description: Inhibition of human HDAC in HeLa cell nuclear extract for 60 mins by HDAC-Glo 1/2 reagent based chemiluminescence analysis. The class given is cell-free.
In series [3] the target is T1, Histone deacetylase (Homo sapiens). Description: Inhibition of human HDAC in HeLa cell nuclear extract in presence of irradiation at 400 to 430 nm for 1 to 10 mins incubated for 60 mins by HDAC-Glo 1/2 reagent based chemiluminescence analysis. Format: cell-free.

Calls of active or inactive are those of the source. No cut-off for these calls is given here.

For the compound `CCN(CC)c1ccc2c(CONC(=O)CCCCCCC(=O)Nc3ccccc3)cc(=O)oc2c1`, in series [1], the Drug metabolism amounted to 54 µM. For the same compound, the outcome in the series on HCT-116 was Active. Also, the inhibition result in series [2] is “inactive”. The inhibition entry in series [3] is “Active”.
